Test results as given in PubChem BioAssay (NCI).
“And” between values parts separate entries of the source, which are not always exact repeats. Identical values can stand only once.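 Where inhibition never reached the appropriate level, the endpoint shown equals the highest concentration tested. Otherwise, values were interpolated linearly from a five-concentration, 48-hour dose response in 96-well plates. The concentration for 50% growth inhibition is given as GI50. TGI: concentration producing complete growth inhibition.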

Tests used:
Assay in all cases: NCI-60 cell line screen, 48 h
CCRF-CEM leukemia = test system: CCRF-CEM leukemia
LOX IMVI melanoma = test system: LOX IMVI melanoma
SK-MEL-28 melanoma = test system: SK-MEL-28 melanoma
OVCAR-8 ovarian = test system: OVCAR-8 ovarian
TK-10 renal = test system: TK-10 renal
UACC-62 melanoma = test system: UACC-62 melanoma
KM12 colon = test system: KM12 colon
HCT-116 colon = test system: HCT-116 colon
SR leukemia = test system: SR leukemia
SK-MEL-5 melanoma = test system: SK-MEL-5 melanoma

Compound	GI50 (CCRF-CEM leukemia) [nM]	TGI (CCRF-CEM leukemia)	GI50 (LOX IMVI melanoma) [nM]	TGI (LOX IMVI melanoma)	GI50 (SK-MEL-28 melanoma) [nM]	TGI (SK-MEL-28 melanoma)	GI50 (OVCAR-8 ovarian) [µM]	TGI (OVCAR-8 ovarian)	GI50 (TK-10 renal) [µM]	TGI (TK-10 renal)	GI50 (UACC-62 melanoma) [nM]	TGI (UACC-62 melanoma)	GI50 (KM12 colon) [nM]	TGI (KM12 colon)	GI50 (HCT-116 colon) [nM]	TGI (HCT-116 colon)	GI50 (SR leukemia) [nM]	TGI (SR leukemia)	GI50 (SK-MEL-5 melanoma) [nM]	TGI (SK-MEL-5 melanoma)
COc1ccccc1C(=O)c1cnc(NC2CCN(S(C)(=O)=O)CC2)nc1N	7040	> 24.1 µM	6250	> 25 µM	6380	> 25 µM	6.97	> 25 µM	5.92	> 25 µM	6680	> 25 µM	5740	> 25 µM	4520	> 25 µM	2000	> 19.5 µM	4840	> 25 µM
COc1ccc2nc3ccc(OC)cc3c(SCCCN)c2c1	1760	4.11 µM	2220	5.26 µM	1990	3.86 µM	5.13	12.9 µM	2.03	10.5 µM	12000	39.4 µM	4520	20.5 µM	3210	12.6 µM	1540	3.64 µM	7820	25.7 µM
O=C(N[C@@H]1CCCc2ccccc21)[C@H](CCC(=O)N1CCN(C2CCCCC2)CC1)N1C(=O)[C@@H](N2C(=O)OC[C@@H]2c2ccccc2)[C@H]1/C=C/c1ccccc1	2830	8.87 µM	1680	3.41 µM	1770	3.67 µM	4.58	18.9 µM	2.02	6.01 µM	1860	3.93 µM	2620	11.6 µM	1800	4.68 µM	2680	> 100 µM	1370	2.71 µM
O=C1c2c(O)cccc2C(C(=O)CCCCC(=O)C2c3cccc(O)c3C(=O)c3c(O)cccc32)c2cccc(O)c21	1200	2.65 µM and 2.61 µM	1560	2.74 µM and 5.08 µM	1540	2.5 µM and 3.27 µM	1.53	2.16 µM and 5.26 µM	2.85	3.65 µM and 8.35 µM	1620	2.48 µM and 5.78 µM	884	1.31 µM and 1.68 µM	1930	2.1 µM and 6.82 µM	1410	25 µM and 2.87 µM	1090	0.921 µM and 2.04 µM
COC(=O)c1c(C)oc2ccc(OC(C)=O)cc12	–	> 100 µM	–	> 100 µM	–	> 100 µM	–	> 100 µM	–	> 100 µM	–	> 100 µM	–	> 100 µM	–	> 100 µM	–	> 100 µM	–	> 100 µM
COc1ccc(C2=CC(c3cc(OC)c(OC)c(OC)c3)n3ncnc3N2)cc1 (configuration not stated)	42.5	> 100 µM	89.8	> 100 µM	10900	> 100 µM	0.0763	21.6 µM	13	31.7 µM	68.9	> 100 µM	40.2	18.9 µM	40.1	> 100 µM	43.9	> 100 µM	42.7	0.374 µM
O=C1c2cccnc2C(=O)c2c1c(C(=O)OCCCN1CCOCC1)c1ccccn21	49.3	–	< 10	0.0152 µM	65.8	4.57 µM	< 0.01	1.92 µM	0.0292	5.57 µM	< 10	0.0244 µM	33.3	15.4 µM	< 10	0.184 µM	< 10	> 100 µM	< 11.4	0.0951 µM
CCN(CC)CCC(=O)Nc1ccc(Cn2nnc3c2C(=O)c2nnn(Cc4ccc(NC(=O)CCN(CC)CC)cc4)c2C3=O)cc1	240	–	232	0.703 µM	1090	2.82 µM	1.83	4.41 µM	13.2	30.8 µM	1080	2.67 µM	728	2.46 µM	283	1.12 µM	507	5 µM	485	1.25 µM
C[C@@H](NC(=O)Cc1cc(F)cc(F)c1)C(=O)N[C@@]1(C)N=C(c2ccccc2)c2ccccc2N(C)C1=O	24600	> 100 µM	45700	> 100 µM	> 100000	> 100 µM	65.1	> 100 µM	31.2	> 88.8 µM	32400	> 89 µM	41300	> 100 µM	32200	> 100 µM	2500	> 22.7 µM	35200	> 100 µM
COC(=O)C(CC=O)C(=O)C(=O)Nc1cccc(C(F)(F)F)c1 (configuration not stated)	–	> 100 µM	–	> 100 µM	–	> 100 µM	–	> 100 µM	–	> 100 µM	–	> 100 µM	–	> 100 µM	–	> 100 µM	–	> 100 µM	–	> 100 µM
O=c1oc(-c2ccc(O)c(O)c2)cc2cc(O)cc(O)c12	3390	> 100 µM	60800	> 100 µM	39500	> 100 µM	42.1	> 100 µM	30.5	> 100 µM	33800	> 100 µM	28600	> 100 µM	29800	> 100 µM	8260	> 100 µM	18000	42.2 µM
Oc1cc2cc(-c3ccccc3)[nH]c2c2ccccc12	–	> 100 µM	–	34.3 µM	–	> 100 µM	–	> 100 µM	–	> 100 µM	–	29.4 µM	–	> 100 µM	–	37.1 µM	–	> 93.6 µM	–	27.2 µM
COc1cc2oc3ccccc3c(=O)c2cc1CSc1ccccc1N	–	45.6 µM	–	> 100 µM	–	98.2 µM	–	> 100 µM	–	> 100 µM	–	> 66.9 µM	–	84 µM	–	> 100 µM	–	28.3 µM	–	> 74 µM
CCOC(=O)c1cnc2[nH]c(=O)c3ccccc3n2c1=O	–	> 100 µM	–	> 100 µM	–	> 100 µM	–	> 100 µM	–	> 100 µM	–	> 100 µM	–	> 100 µM	–	> 100 µM	–	> 100 µM	–	> 100 µM
O=C(CCCCCCCCCCc1ccccc1)c1c(O)cccc1O	–	90.8 µM	–	72.9 µM	–	40.1 µM	–	38.1 µM	–	> 100 µM	–	36.2 µM	–	33.2 µM	–	48.3 µM	–	63.4 µM	–	30.4 µM
N#CC1c2ccccc2-c2ccccc2N1C(=O)c1ccccc1 (configuration not stated)	2170	> 36.3 µM	2810	> 94.3 µM	1750	> 100 µM	3.63	96.9 µM	1.23	28.2 µM	1900	> 38.5 µM	1160	4.17 µM	1740	9.22 µM	2920	–	1550	4.84 µM
